How the values were obtained:
[1] = system: phosphorylated CREB in differentiated PC12 cells; assay: nuclear p-CREB immunostaining in differentiated PC12 cells; type: cell-based; conditions: 1 μM, 24 h
Experimental: (§1) Differentiated PC12 cells and mouse embryonic cortical neurons (E17, DIV14) were treated with mock, dextran, alginate, HA-GAGR, or midi-GAGR (1 μM) for 24 h and fixed in 3.7% paraformaldehyde. The fixed cells and neurons were immunostained with antibodies against α-tubulin and phosopho-CREB (p-CREB) along with DAPI (nucleus).

[2] = system: phosphorylated CREB in mouse embryonic cortical neurons; assay: nuclear p-CREB immunostaining in embryonic cortical neurons (Example 2); type: cell-based; conditions: 1 μM, 24 h
Experimental: as §1

[3] = system: rat embryonic cortical neurons exposed to 25 μM 4-HNE; assay: neuritic atrophy caused by 4-HNE in cortical neurons; type: cell-based; conditions: pre-treatment 2 days (1 μM; ascorbate 100 μM), then 25 μM 4-HNE 1 day
Experimental: Rat embryonic cortical neurons were treated with mock (FIG. 11C), 1 μM HA-GAGR (high acyl gellan gum), 1 μM dextran, 100 μM ascorbate, or 1 μM midi-GAGR (FIG. 13A) for 2 days and then with 25 μM 4-hydroxynonenal (4-HNE), a lipid peroxide, for 1 day. After fixation, neurons were immunostained with anti-synaptophysin antibody (green) and rhodamine-phalloidin (actin: red). Scholl ring analysis was performed.

[4] = system: primary mouse cortical neurons (E17, DIV4); assay: neurite outgrowth in primary mouse cortical neurons; type: cell-based; conditions: 2 days; midi-GAGR, dextran, alginate 1 μM; LA-GAGR 0.1 μM; HA-GAGR 0.01 μM
Experimental: To analyze the effect of polysaccharides on neurite outgrowth, primary mouse cortical neurons were treated with vehicle (H2O) or 1 μM of dextran, alginate, or midi-GAGR, 0.01 μM of HA-GAGR, or 0.1 μM of LA-GAGR for 2 days prior to immunocytochemistry using anti-α-tubulin antibody and secondary Alexa488nm antibody. An etched grid coverslip containing 200 numbered boxes was used to select neurons objectively for image acquisition and analysis. A total of 24 boxes were randomly selected per treatment group. All the neurons having total neurite length longer than 4 times of the diameter of neuron cell body were chosen for image analysis. The total length of the neurites of each neuron was measured using Metamorph and used to calculate average total neurite length. To examine the effect of polysaccharides on the phosphorylation (activation) of nuclear CREB, neurons were stained with anti-pCREB antibody (Abcam & Santa Cruz biotechnologies, 2nd antibody with Alexa568nm), anti-α-tubulin antibody (Sigma, 2nd antibody with Alexa488nm), and DAPI (Sigma) after two-day incubation with vehicle (H2O) or 1 μM of dextran, alginate, or midi-GAGR, 0.01 μM of HA-GAGR, or 0.1 μM of LA-GAGR. […] The images of neurons on coverslips were taken by confocal microscopy at the same gain (850), offset (−0.01), and exposure time (2 sec). The intensity of the staining of nuclear pCREB was measured using Metamorph and used to calculate average intensity. In addition, the phosphorylation of CREB in the cytosols of mouse cortical neurons treated with polysaccharides were detected by immunoblotting. Primary mouse neurons were dissected from 16 mouse embryos (E17) and plated in the wells of 6-well plates (1×10^6 cells/well), differentiated for 6 days, and treated with polysaccharides for 48 h. […] The protein bands on blots recognized by anti-pCREB (Santa Cruz Biotechnologies) and anti-CREB antibodies were detected on Amersham Hyperfilm™ ECL films (GE Healthcare Life Science) using SuperSignal® West Pico Chemiluminescent Substrate (Thermo Scientific).

FGFR1 = FGFR1 (Mus musculus, UniProt P16092); assay: affinity chromatography with midi-GAGR-conjugated sepharose beads, FGFR1 immunoblotting; type: binding; design: Whole mouse brains were homogenized for cytosol extraction in PMEE buffer containing 1% Igepal CA-630; from tissue; host or cells: mouse brain (cerebral cortex / whole brain) detergent extract; conditions: 0.5% Igepal CA-630 PMEE buffer
Experimental: To examine whether midi-GAGR interacts with synaptosomal FGFR1 or not, an affinity chromatography using midi-GAGR-conjugated sepharose beads was performed. Either midi-GAGR or dextran were conjugated to epoxy-activated sepharose 6B that is a pre-activated medium that can be conjugated to the hydroxyl groups of carbohydrates. Briefly, 200 μL of 7.4 mM midi-GAGR or 5 kD dextran in H2O was mixed with 200 μL of epoxy-activated sepharose beads in a microtube and incubated on a rotator (16 h, 37° C.). The mixture was spun down at 1,000×g (10 min) to separate bead-bound polysaccharides from unbound. Unoccupied active sites on beads were blocked by incubation (4 h, 45° C.) in 1 M ethanolamine (pH 8). Then, beads were washed with three cycles of alternating pH solutions—0.1 M acetate buffer (pH 4) and 0.1 M Tris-HCl buffer (pH 8), both containing 0.5 M NaCl. The conjugation of polysaccharides to beads was confirmed by phenol-sulfuric acid colorimetry. Cerebral cortices were dissected from four female mice (BALB/C, 8 wks old) and homogenized with a hand grinder in 1 mL of PMEE homogenization buffer plus 1% Igepal CA-630 and protease inhibitors (PIs). The homogenate was centrifuged at 1,000×g (10 min) to remove nuclei and undisrupted cells. The supernatant was subjected to 5-6 strokes through 27G needle. Post-nuclear supernatant was centrifuged at 1,000×g (15 min). […]

Chain of FGFR1 (P16092 22-822): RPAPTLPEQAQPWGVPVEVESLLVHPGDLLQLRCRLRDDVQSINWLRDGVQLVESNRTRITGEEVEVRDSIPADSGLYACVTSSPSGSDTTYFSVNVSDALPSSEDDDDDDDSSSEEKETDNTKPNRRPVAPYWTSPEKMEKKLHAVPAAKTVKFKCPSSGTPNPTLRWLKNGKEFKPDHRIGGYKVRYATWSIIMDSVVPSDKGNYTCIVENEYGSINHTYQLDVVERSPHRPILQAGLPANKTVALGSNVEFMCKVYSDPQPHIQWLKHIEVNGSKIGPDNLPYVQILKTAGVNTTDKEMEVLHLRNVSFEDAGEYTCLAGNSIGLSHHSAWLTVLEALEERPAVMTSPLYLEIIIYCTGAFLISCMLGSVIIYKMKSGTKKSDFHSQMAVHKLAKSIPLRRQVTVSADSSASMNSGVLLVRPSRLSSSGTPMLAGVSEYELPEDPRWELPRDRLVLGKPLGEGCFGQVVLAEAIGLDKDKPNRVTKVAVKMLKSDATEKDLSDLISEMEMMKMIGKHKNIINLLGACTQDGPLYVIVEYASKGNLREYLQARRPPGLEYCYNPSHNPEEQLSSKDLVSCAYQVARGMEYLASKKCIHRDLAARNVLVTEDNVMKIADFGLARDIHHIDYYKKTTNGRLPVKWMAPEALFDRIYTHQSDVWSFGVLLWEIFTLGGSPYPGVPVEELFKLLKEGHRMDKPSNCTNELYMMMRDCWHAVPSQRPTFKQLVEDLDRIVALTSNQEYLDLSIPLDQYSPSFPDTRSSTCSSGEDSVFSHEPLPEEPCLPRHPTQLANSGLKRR

For dextran, the “increase in levels of nuclear p-CREB” value [1] was “not significantly increased”, the “increase in levels of nuclear p-CREB” value [2] was “not significantly increased” and the “neurites in the presence of 4-HNE (neuritic atrophy)” value [3] was “lost neuritis”. The “fold change in average total neurite length vs vehicle” value [4] was “did not enhance neuritogenesis” and the “FGFR1 pulled down from brain extract by polysaccharide-conjugated beads” value (FGFR1) was “not”.
